Patent US20220135591A1, “HETEROCYCLIC COMPOUNDS AS INHIBITORS OF MONOACYLGLYCEROL LIPASE (MAGL)” (Hoffmann-La Roche Inc., priority 2019, published 2022)

Target: T1, MAGL (recombinant wild-type) (Homo sapiens, UniProt Q99685)
T1 sequence (Q99685 1-303): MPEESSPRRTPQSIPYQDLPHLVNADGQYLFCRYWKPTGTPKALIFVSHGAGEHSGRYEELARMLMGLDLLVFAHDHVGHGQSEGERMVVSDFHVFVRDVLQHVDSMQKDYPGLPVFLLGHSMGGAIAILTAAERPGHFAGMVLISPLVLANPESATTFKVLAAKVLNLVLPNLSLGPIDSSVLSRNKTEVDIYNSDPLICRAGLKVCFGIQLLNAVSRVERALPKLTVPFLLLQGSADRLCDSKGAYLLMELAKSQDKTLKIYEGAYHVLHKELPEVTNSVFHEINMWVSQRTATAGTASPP
Experiment: 4-NPA assay: MAGL inhibitory activity by hydrolysis of 4-nitrophenylacetate, absorbance at 405 nm
Format: biochemical
Conditions: 4-NPA assay (values without footnote [b])
In short: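 Final assay: 1 nM MAGL and 300 μM 4-nitrophenylacetate in 50 mM Tris, 1 mM EDTA, at RT. Compounds (25 μM–1.7 nM, 3-fold steps) were preincubated 15 min with enzyme. A405 was read 5 min after substrate addition and again after 80 min; activity was taken as the difference between reads.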

Row | SMILES | IC50
1 | CCOC1(C)CN(c2ccc(C(=O)N3CCN(c4nc5nc(Cl)ccc5o4)CC3)cc2)C1 [Example 209, (4-(5-chlorooxazolo[4,5-b]pyridin-2-yl)piperazin-1-yl)(4-(3-ethoxy-3-methylazetidin-1-yl)phenyl)methanone] | 235 nM
2 | Cc1ccc2oc(N3CCN(C(=O)c4ccc(N5CC(OC(C)C(F)(F)F)C5)cc4C)CC3)nc2n1 (stereo not shown) [Example 211, (2-methyl-4-(3-((1,1,1-trifluoropropan-2-yl)oxy)azetidin-1-yl)phenyl)(4-(5-methyloxazolo[4,5-b]pyridin-2-yl)piperazin-1-yl)methanone] | 346 nM
3 | Cc1ccc2oc(N3CCN(C(=O)c4c(F)cc(N5CC(OC(C)C(F)(F)F)C5)cc4F)CC3)nc2n1 (stereo not shown) [Example 212, (2,6-difluoro-4-(3-((1,1,1-trifluoropropan-2-yl)oxy)azetidin-1-yl)phenyl)(4-(5-methyloxazolo[4,5-b]pyridin-2-yl)piperazin-1-yl)methanone] | 1130 nM
4 | Cc1ccc2oc(N3CCN(C(=O)c4ccc(N5CC(OC(C)C(F)(F)F)C5)cc4Cl)CC3)nc2n1 (stereo not shown) [Example 213, (2-chloro-4-(3-((1,1,1-trifluoropropan-2-yl)oxy)azetidin-1-yl)phenyl)(4-(5-methyloxazolo[4,5-b]pyridin-2-yl)piperazin-1-yl)methanone] | 99 nM
5 | Cc1ccc2oc(N3CCN(C(=O)c4ccc(N5CC(OC(C)C(F)(F)F)C5)nc4)CC3)nc2n1 (stereo not shown) [Example 214, (4-(5-methyloxazolo[4,5-b]pyridin-2-yl)piperazin-1-yl)(6-(3-((1,1,1-trifluoropropan-2-yl)oxy)azetidin-1-yl)pyridin-3-yl)methanone] | 170 nM
6 | Cc1ccc2oc(N3CCN(C(=O)c4cnc(N5CC(OC(C)C(F)(F)F)C5)c(C)c4)CC3)nc2n1 (stereo not shown) [Example 216, (5-methyl-6-(3-((1,1,1-trifluoropropan-2-yl)oxy)azetidin-1-yl)pyridin-3-yl)(4-(5-methyloxazolo[4,5-b]pyridin-2-yl)piperazin-1-yl)methanone] | 113 nM
7 | Cc1ccc2oc(N3CCN(C(=O)c4cnc(N5CC(OC(C)C(F)(F)F)C5)c(F)c4Cl)CC3)nc2n1 (stereo not shown) [Example 217, (4-chloro-5-fluoro-6-(3-((1,1,1-trifluoropropan-2-yl)oxy)azetidin-1-yl)pyridin-3-yl)(4-(5-methyloxazolo[4,5-b]pyridin-2-yl)piperazin-1-yl)methanone] | 167 nM
8 | Cc1ccc2oc(N3CCN(C(=O)c4ccc(N5CC(OC(C)C(F)(F)F)C5)nn4)CC3)nc2n1 (stereo not shown) [Example 218, (4-(5-methyloxazolo[4,5-b]pyridin-2-yl)piperazin-1-yl)(6-(3-((1,1,1-trifluoropropan-2-yl)oxy)azetidin-1-yl)pyridazin-3-yl)methanone] | 1540 nM
9 | Cc1ccc2oc(N3CCN(C(=O)c4cnc(N5CC(OC(C)C(F)(F)F)C5)nc4)CC3)nc2n1 (stereo not shown) [Example 219, (4-(5-methyloxazolo[4,5-b]pyridin-2-yl)piperazin-1-yl)(2-(3-((1,1,1-trifluoropropan-2-yl)oxy)azetidin-1-yl)pyrimidin-5-yl)methanone] | 220 nM
10 | Cc1ccc2oc(N3CCN(C(=O)c4cnc(N5CC(OC(C)C(F)(F)F)C5)cc4C)CC3)nc2n1 (stereo not shown) [Example 220, (4-methyl-6-(3-((1,1,1-trifluoropropan-2-yl)oxy)azetidin-1-yl)pyridin-3-yl)(4-(5-methyloxazolo[4,5-b]pyridin-2-yl)piperazin-1-yl)methanone] | 4000 nM
11 | Cc1ccc2oc(N3CCN(C(=O)c4cnc(N5CC6(CCC6(F)F)C5)cc4C)CC3)nc2n1 [Example 221, (6-(5,5-difluoro-2-azaspiro[3.3]heptan-2-yl)-4-methylpyridin-3-yl)(4-(5-methyloxazolo[4,5-b]pyridin-2-yl)piperazin-1-yl)methanone] | 13100 nM
12 | Cc1ccc2oc(N3CCN(C(=O)c4cnc(N5CCC6(C5)CC6(F)F)nc4)CC3)nc2n1 (stereo not shown) [Example 222, (2-(1,1-difluoro-5-azaspiro[2.4]heptan-5-yl)pyrimidin-5-yl)(4-(5-methyloxazolo[4,5-b]pyridin-2-yl)piperazin-1-yl)methanone] | 794 nM
13 | Cc1ccc2oc(N3CCN(C(=O)c4cnc(N5CCC6(C5)CC6(F)F)cc4C)CC3)nc2n1 (stereo not shown) [Example 223, (6-(1,1-difluoro-5-azaspiro[2.4]heptan-5-yl)-4-methylpyridin-3-yl)(4-(5-methyloxazolo[4,5-b]pyridin-2-yl)piperazin-1-yl)methanone] | 4460 nM
14 | Cc1ccc2oc(N3CCN(C(=O)c4cnc(N5CCC6(C5)CC6(F)F)c(C)c4)CC3)nc2n1 (stereo not shown) [Example 225, (6-(1,1-difluoro-5-azaspiro[2.4]heptan-5-yl)-5-methylpyridin-3-yl)(4-(5-methyloxazolo[4,5-b]pyridin-2-yl)piperazin-1-yl)methanone] | 244 nM
15 | Cc1ccc2oc(N3CCN(C(=O)c4cnc(N5CCC6(C5)CC6(F)F)c(F)c4)CC3)nc2n1 (stereo not shown) [Example 228, (6-(1,1-difluoro-5-azaspiro[2.4]heptan-5-yl)-5-fluoropyridin-3-yl)(4-(5-methyloxazolo[4,5-b]pyridin-2-yl)piperazin-1-yl)methanone] | 152 nM
16 | CC(C)(C)Cc1nc(-c2ccc(C(=O)N3CCN(c4nc5nc(C#N)ccc5o4)CC3)cc2)no1 [Example 260, 2-(4-(4-(5-neopentyl-1,2,4-oxadiazol-3-yl)benzoyl)piperazin-1-yl)oxazolo[4,5-b]pyridine-5-carbonitrile] | 301 nM

These reach a lower IC50. Values come first.

Row | IC50 | SMILES
17 | 61 nM | Cc1ccc2oc(N3CCN(C(=O)c4ccc(N5CC6(CCC6(F)F)C5)cc4)CC3)nc2n1 [Example 206, (4-(5,5-difluoro-2-azaspiro[3.3]heptan-2-yl)phenyl)(4-(5-methyloxazolo[4,5-b]pyridin-2-yl)piperazin-1-yl)methanone]
18 | 16 nM | Cc1ccc2oc(N3CCN(C(=O)c4ccc(N5CC(OC(C)C(F)(F)F)C5)cc4F)CC3)nc2n1 (stereo not shown) [Example 207, (2-fluoro-4-(3-((1,1,1-trifluoropropan-2-yl)oxy)azetidin-1-yl)phenyl)(4-(5-methyloxazolo[4,5-b]pyridin-2-yl)piperazin-1-yl)methanone]
19 | 16 nM | CC(OC1CN(c2ccc(C(=O)N3CCN(c4nc5nc(Cl)ccc5o4)CC3)cc2)C1)C(F)(F)F (stereo not shown) [Example 208, (4-(5-chlorooxazolo[4,5-b]pyridin-2-yl)piperazin-1-yl)(4-(3-((1,1,1-trifluoropropan-2-yl)oxy)azetidin-1-yl)phenyl)methanone]
20 | 24 nM | Cc1ccc2oc(N3CCN(C(=O)c4ccc(N5CC(OC(C)C(F)(F)F)C5)c(F)c4)CC3)nc2n1 (stereo not shown) [Example 210, (3-fluoro-4-(3-((1,1,1-trifluoropropan-2-yl)oxy)azetidin-1-yl)phenyl)(4-(5-methyloxazolo[4,5-b]pyridin-2-yl)piperazin-1-yl)methanone]
21 | 70 nM | CCC(C)(C)OC1CN(c2ccc(C(=O)N3CCN(c4nc5nc(C)ccc5o4)CC3)cn2)C1 [Example 215, (4-(5-methyloxazolo[4,5-b]pyridin-2-yl)piperazin-1-yl)(6-(3-(tert-pentyloxy)azetidin-1-yl)pyridin-3-yl)methanone]
22 | 90 nM | Cc1ccc2oc(N3CCN(C(=O)c4cnc(N5CC(OC(C)C(F)(F)F)C5)c(F)c4)CC3)nc2n1 (stereo not shown) [Example 224, (5-fluoro-6-(3-((1,1,1-trifluoropropan-2-yl)oxy)azetidin-1-yl)pyridin-3-yl)(4-(5-methyloxazolo[4,5-b]pyridin-2-yl)piperazin-1-yl)methanone]
23 | 38 nM | Cc1ccc2oc(N3CCN(C(=O)c4cnc(N5CC(OC(C)C(F)(F)F)C5)c(Cl)c4)CC3)nc2n1 (stereo not shown) [Example 226, (5-chloro-6-(3-((1,1,1-trifluoropropan-2-yl)oxy)azetidin-1-yl)pyridin-3-yl)(4-(5-methyloxazolo[4,5-b]pyridin-2-yl)piperazin-1-yl)methanone]
24 | 62 nM | Cc1ccc2oc(N3CCN(C(=O)c4cnc(N5CCC6(C5)CC6(F)F)c(Cl)c4)CC3)nc2n1 (stereo not shown) [Example 227, (5-chloro-6-(1,1-difluoro-5-azaspiro[2.4]heptan-5-yl)pyridin-3-yl)(4-(5-methyloxazolo[4,5-b]pyridin-2-yl)piperazin-1-yl)methanone]
25 | 35 nM | CC(OC1CN(c2ncc(C(=O)N3CCN(c4nc5nc(Cl)ccc5o4)CC3)cc2F)C1)C(F)(F)F (stereo not shown) [Example 229, (4-(5-chlorooxazolo[4,5-b]pyridin-2-yl)piperazin-1-yl)(5-fluoro-6-(3-((1,1,1-trifluoropropan-2-yl)oxy)azetidin-1-yl)pyridin-3-yl)methanone]
26 | 56 nM | O=C(c1cnc(N2CCC3(C2)CC3(F)F)c(F)c1)N1CCN(c2nc3nc(Cl)ccc3o2)CC1 (stereo not shown) [Example 230, (4-(5-chlorooxazolo[4,5-b]pyridin-2-yl)piperazin-1-yl)(6-(1,1-difluoro-5-azaspiro[2.4]heptan-5-yl)-5-fluoropyridin-3-yl)methanone]
27 | 40 nM | CC(C)(C)Cc1nc(-c2ccc(C(=O)N3CCN(c4nc5nc(C(F)(F)F)ccc5o4)CC3)cc2)no1 [Example 261, (4-(5-neopentyl-1,2,4-oxadiazol-3-yl)phenyl)(4-(5-(trifluoromethyl)oxazolo[4,5-b]pyridin-2-yl)piperazin-1-yl)methanone]
28 | 65 nM | CC(F)(F)Cc1nc(-c2ccc(C(=O)N3CCN(c4nc5nc(Cl)ccc5o4)CC3)cc2)no1 [Example 262, [4-(5-chlorooxazolo[4,5-b]pyridin-2-yl)piperazin-1-yl]-[4-[5-(2,2-difluoropropyl)-1,2,4-oxadiazol-3-yl]phenyl]methanone]
